Measurements reported in ChEMBL document CHEMBL1147423, “Synthesis and antifungal activities of phenylenedithioureas” (2004).
Converted amounts (≈) assume the structure as drawn.

How the values were obtained:
[1] = tested on: Candida albicans; assay: Minimum inhibitory concentration against Candida albicans ATCC 10231; type: functional
[2] = tested on: Paraphyton cookei; assay: Minimum inhibitory concentration against Microsporum cookei; type: functional
[3] = tested on: Nannizzia nana; assay: Minimum inhibitory concentration against Microsporum nanum; type: functional
[4] = tested on: Escherichia coli; assay: Minimum inhibitory concentration against Escherichia coli ATCC 25853; type: functional
[5] = tested on: Enterococcus faecalis; assay: Minimum inhibitory concentration against Streptococcus faecalis ATCC 29212; type: functional
[6] = tested on: Nannizzia gypsea; assay: Minimum inhibitory concentration Microsporum gypseum; type: functional
[7] = tested on: Aspergillus flavus; assay: Minimum inhibitory concentration against Aspergillus flavus; type: functional
[8] = tested on: Staphylococcus aureus; assay: Minimum inhibitory concentration Staphylococcus aureus ATCC 29213; type: functional
[9] = tested on: Pseudomonas aeruginosa; assay: Minimum inhibitory concentration against Pseudomonas aeruginosae ATCC 27853; type: functional
[10] = tested on: Arthroderma uncinatum; assay: Minimum inhibitory concentration against Trichophyton ajelloi; type: functional
[11] = tested on: Trichophyton benhamiae; assay: Minimum inhibitory concentration against Trichophyton mentagrophytes; type: functional, Arthroderma benhamiae
[12] = tested on: Aspergillus niger; assay: Minimum inhibitory concentration against Aspergillus niger; type: functional

| Compound | MIC [1] [µg/mL] | MIC [2] [µg/mL] | MIC [3] [µg/mL] | MIC [4] [µg/mL] | MIC [5] [µg/mL] | MIC [6] [µg/mL] | MIC [7] [µg/mL] | MIC [8] [µg/mL] | MIC [9] [µg/mL] | MIC [10] [µg/mL] | MIC [11] [µg/mL] | MIC [12] [µg/mL] |
| --- | --- | --- | --- | --- | --- | --- | --- | --- | --- | --- | --- | --- |
| O=C(NNc1ccccc1)c1ccc(NC(=S)Nc2ccc(NC(=S)Nc3ccc(C(=O)NNc4ccccc4)cc3)cc2)cc1 | > 512 | 16 (≈ 24.7 µM) | 8 (≈ 12.4 µM) | 512 (≈ 792 µM) | 512 (≈ 792 µM) | 64 (≈ 98.9 µM) | ≥ 512 | 128 (≈ 198 µM) | 512 (≈ 792 µM) | 128 (≈ 198 µM) | 16 (≈ 24.7 µM) | ≥ 512 |
| CC(=O)N1CCN(c2ccc(OC[C@H]3CO[C@](Cn4ccnc4)(c4ccc(Cl)cc4Cl)O3)cc2)CC1 [KETOCONAZOLE] | 128 (≈ 241 µM) | 8 (≈ 15.1 µM) | 16 (≈ 30.1 µM) |  |  | 16 (≈ 30.1 µM) | ≥ 512 |  |  | 16 (≈ 30.1 µM) | 16 (≈ 30.1 µM) | ≥ 512 |
| CCOC(=O)c1ccc(/N=C(\S)Nc2ccc(/N=C(\S)Nc3ccc(C(=O)OCC)cc3)cc2)cc1 | > 512 | 128 (≈ 245 µM) | 128 (≈ 245 µM) | > 512 | 512 (≈ 980 µM) | > 512 | ≥ 512 | > 512 | 512 (≈ 980 µM) | 256 (≈ 490 µM) | 512 (≈ 980 µM) | ≥ 512 |
| O=C(NNc1ccccc1)c1ccc(/N=C(\S)Nc2ccc(/N=C(/S)Nc3ccc(C(=O)NNc4ccccc4)c(O)c3)cc2)cc1O | 512 (≈ 754 µM) | 64 (≈ 94.3 µM) | 64 (≈ 94.3 µM) | 512 (≈ 754 µM) | 512 (≈ 754 µM) | 128 (≈ 189 µM) | ≥ 512 | 512 (≈ 754 µM) | 512 (≈ 754 µM) | 32 (≈ 47.1 µM) | 32 (≈ 47.1 µM) | ≥ 512 |
| COC(=O)c1ccc(/N=C(\S)Nc2ccc(/N=C(\S)Nc3ccc(C(=O)OC)cc3)cc2)cc1 | > 512 | 128 (≈ 259 µM) | 32 (≈ 64.7 µM) | > 512 | 512 (≈ 1040 µM) | 256 (≈ 518 µM) | ≥ 512 | > 512 | 512 (≈ 1040 µM) | 128 (≈ 259 µM) | 32 (≈ 64.7 µM) | ≥ 512 |

Next, values leading:

| MIC [1] [µg/mL] | MIC [2] [µg/mL] | MIC [3] [µg/mL] | MIC [4] [µg/mL] | MIC [5] [µg/mL] | MIC [6] [µg/mL] | MIC [7] [µg/mL] | MIC [8] [µg/mL] | MIC [9] [µg/mL] | MIC [10] [µg/mL] | MIC [11] [µg/mL] | MIC [12] [µg/mL] | Compound |
| --- | --- | --- | --- | --- | --- | --- | --- | --- | --- | --- | --- | --- |
| > 512 | 256 (≈ 462 µM) | 128 (≈ 231 µM) | > 512 | 512 (≈ 923 µM) | 256 (≈ 462 µM) | ≥ 512 | > 512 | 512 (≈ 923 µM) | > 512 | > 512 | ≥ 512 | CCOC(=O)c1ccc(/N=C(\S)Nc2ccc(/N=C(/S)Nc3ccc(C(=O)OCC)c(O)c3)cc2)cc1O |
| > 512 | 32 (≈ 68.6 µM) | 16 (≈ 34.3 µM) | > 512 | 512 (≈ 1100 µM) | 32 (≈ 68.6 µM) | ≥ 512 | > 512 | 512 (≈ 1100 µM) | 16 (≈ 34.3 µM) | 32 (≈ 68.6 µM) | ≥ 512 | O=C(O)c1ccc(N/C(S)=N\c2ccccc2/N=C(/S)Nc2ccc(C(=O)O)cc2)cc1 |
| 512 (≈ 1030 µM) | 32 (≈ 64.2 µM) | 32 (≈ 64.2 µM) | > 512 | 512 (≈ 1030 µM) | 16 (≈ 32.1 µM) | ≥ 512 | > 512 | 512 (≈ 1030 µM) | 32 (≈ 64.2 µM) | 8 (≈ 16 µM) | ≥ 512 | O=C(O)c1ccc(N/C(S)=N\c2ccccc2/N=C(/S)Nc2ccc(C(=O)O)c(O)c2)cc1O |
| > 512 | 8 (≈ 16 µM) | 64 (≈ 128 µM) | 512 (≈ 1030 µM) | > 512 | 64 (≈ 128 µM) | ≥ 512 | 256 (≈ 513 µM) | > 512 | 32 (≈ 64.2 µM) | 32 (≈ 64.2 µM) | ≥ 512 | O=C(O)c1ccc(/N=C(\S)Nc2cccc(/N=C(/S)Nc3ccc(C(=O)O)c(O)c3)c2)cc1O |
| > 512 | 64 (≈ 122 µM) | 32 (≈ 60.8 µM) | > 512 | 512 (≈ 972 µM) | 16 (≈ 30.4 µM) | ≥ 512 | > 512 | 512 (≈ 972 µM) | 32 (≈ 60.8 µM) | 64 (≈ 122 µM) | ≥ 512 | COC(=O)c1ccc(/N=C(\S)Nc2ccc(/N=C(/S)Nc3ccc(C(=O)OC)c(O)c3)cc2)cc1O |
| > 512 | 64 (≈ 115 µM) | 32 (≈ 57.7 µM) | 512 (≈ 923 µM) | > 512 | 32 (≈ 57.7 µM) | ≥ 512 | 256 (≈ 462 µM) | > 512 | 32 (≈ 57.7 µM) | 32 (≈ 57.7 µM) | ≥ 512 | CCOC(=O)c1ccc(/N=C(\S)Nc2cccc(/N=C(/S)Nc3ccc(C(=O)OCC)c(O)c3)c2)cc1O |
